Laboratory results published in US10058550B2, “Methods of treating heart failure” (priority 2015, dated 2018).

Biological target: human APJ receptor (Homo sapiens (Human), UniProt P35414)
Assay: biochemical
Format: biochemical
Conditions: read-out: Activity hAPJ SPA EC50 IP
Protocol: The human APJ receptor was cloned by polymerase chain reaction and the gene encoding the receptor was subcloned in pFLAG-CMV™-3 expression vector (Sigma, Saint Louis, Mo. USA) in-house at Amgen. A GTPγS binding assay was performed on membranes prepared from CHO cells stably expressing human APJ receptor. The optimum experimental conditions for the concentrations of GDP, MgCl2, and NaCl in the assay buffer were initially determined. The assay was performed in assay buffer [20 mM HEPES, pH 7.5, 5 mM MgCl2, and 0.1% (w/v) BSA with 200 mM NaCl, 3 μM GDP] and membranes expressing human APJ receptor/well along with WGA PS beads. The reaction was initiated by addition of 0.2 nM [^35S]GTPγS (Perkin Elmer Life and Analytical Sciences, Waltham USA) in the absence or presence of various ligands and incubated at RT for 90 min. […] All the results presented are means of several independent experiments and analyzed by non-linear regression methods using commercially available program Prism (GraphPad, San Diego, Calif.) to obtain EC50 detailed in Table 58.

human APJ receptor, sequence (P35414 whole entry): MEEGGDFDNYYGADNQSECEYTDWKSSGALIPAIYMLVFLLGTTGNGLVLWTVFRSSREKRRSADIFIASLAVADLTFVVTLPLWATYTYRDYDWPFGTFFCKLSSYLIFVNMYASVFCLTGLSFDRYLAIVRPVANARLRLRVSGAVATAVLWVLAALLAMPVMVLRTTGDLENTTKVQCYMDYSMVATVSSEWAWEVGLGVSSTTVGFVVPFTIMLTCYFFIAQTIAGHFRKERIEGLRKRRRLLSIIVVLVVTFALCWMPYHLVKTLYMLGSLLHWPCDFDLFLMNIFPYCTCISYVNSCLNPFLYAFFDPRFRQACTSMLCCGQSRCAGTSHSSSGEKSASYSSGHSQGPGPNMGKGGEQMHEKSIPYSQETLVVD

## COc1cccc(-c2nnc(NS(=O)(=O)C[C@H](O)c3ccc(F)cc3S(C)(=O)=O)n2-c2c(OC)cccc2OC)n1 (single isomer, unassigned) [Example 268.0, (R)—N-(4-(2,6-dimethoxyphenyl)-5-(6-methoxypyridin-2-yl)-4H-1,2,4-triazol-3-yl)-2-(4-fluoro-2-(methylsulfonyl)phenyl)-2-hydroxyethanesulfonamide or (S)—N-(4-(2,6-dimethoxyphenyl)-5-(6-methoxypyridin-2-yl)-4H-1,2,4-triazol-3-yl)-2-(4-fluoro-2-(methylsulfonyl)phenyl)-2-hydroxyethanesulfonamide]
  EC50: 0.17 nM

## COc1cccc(-c2nnc(NS(=O)(=O)[C@@H](C)[C@H](O)c3ccc(F)cc3F)n2-c2c(OC)cccc2OC)n1 (single isomer, unassigned) [Example 279.0]
  EC50: 28 nM

## COc1cccc(-c2nnc(NS(=O)(=O)[C@@H](C)[C@H](O)c3ccc(F)cc3F)n2-c2c(OC)cccc2OC)n1 (single isomer, unassigned) [Example 280.0]
  EC50: 0.27 nM

## COc1cccc(-c2nnc(NS(=O)(=O)[C@@H](C)[C@H](O)c3ccc(F)cc3F)n2-c2c(OC)cccc2OC)n1 (single isomer, unassigned) [Example 281.0]
  EC50: 43 nM

## COc1cccc(-c2nnc(NS(=O)(=O)[C@@H](C)[C@H](O)c3ccc(F)cc3F)n2-c2c(OC)cccc2OC)n1 (single isomer, unassigned) [Example 282.0]
  EC50: 0.71 nM

## COc1cccc(-c2nnc(NS(=O)(=O)[C@@H](C)[C@H](O)c3ccc(F)cc3)n2-c2c(OC)cccc2OC)n1 (single isomer, unassigned) [Example 284.0]
  EC50: 13 nM

## COc1cccc(-c2nnc(NS(=O)(=O)[C@@H](C)[C@H](O)c3ccc(F)cc3)n2-c2c(OC)cccc2OC)n1 (single isomer, unassigned) [Example 285.0]
  EC50: 0.57 nM

## COc1cccc(-c2nnc(NS(=O)(=O)[C@@H](C)[C@H](O)c3ccc(F)cc3)n2-c2c(OC)cccc2OC)n1 (single isomer, unassigned) [Example 286.0]
  EC50: 0.68 nM

## COc1cccc(-c2nnc(NS(=O)(=O)[C@@H](C)[C@H](O)c3ccc(F)cc3)n2-c2c(OC)cccc2OC)n1 (single isomer, unassigned) [Example 287.0]
  EC50: 14 nM

## COc1cccc(-c2nnc(NS(=O)(=O)[C@@H](C)[C@H](O)c3ccc(F)cc3S(C)(=O)=O)n2-c2c(OC)cccc2OC)n1 (single isomer, unassigned) [Example 289.0, (1R,2S)—N-(4-(2,6-dimethoxyphenyl)-5-(6-methoxypyridin-2-yl)-4H-1,2,4-triazol-3-yl)-1-(4-fluoro-2-(methylsulfonyl)phenyl)-1-hydroxypropane-2-sulfonamide or (1S,2R)—N-(4-(2,6-dimethoxyphenyl)-5-(6-methoxypyridin-2-yl)-4H-1,2,4-triazol-3-yl)-1-(4-fluoro-2-(methylsulfonyl)phenyl)-1-hydroxypropane-2-sulfonamide]
  EC50: 11 nM

## COc1cccc(OC)c1-n1c(NS(=O)(=O)[C@@H](C)[C@H](O)c2nc(C)c(C)s2)nnc1-c1cncc(C)c1 (single isomer, unassigned) [Example 291.0]
  EC50: 1.8 nM

## COc1cccc(OC)c1-n1c(NS(=O)(=O)[C@@H](C)[C@H](O)c2nc(C)c(C)s2)nnc1-c1cncc(C)c1 (single isomer, unassigned) [Example 292.0]
  EC50: 0.9 nM

## COc1cccc(OC)c1-n1c(NS(=O)(=O)[C@@H](C)[C@H](O)c2nc(C)c(C)s2)nnc1-c1cncc(C)c1 (single isomer, unassigned) [Example 293.0]
  EC50: 13 nM

## COc1cccc(OC)c1-n1c(NS(=O)(=O)[C@@H](C)[C@H](O)c2nc(C)c(C)s2)nnc1-c1cncc(C)c1 (single isomer, unassigned) [Example 294.0]
  EC50: 11 nM

## COc1cccc(OC)c1-n1c(NS(=O)(=O)[C@@H](C)[C@H](O)c2nc(C)c(C)s2)nnc1-c1cncc(C)c1 (single isomer, unassigned) [Example 295.0]
  EC50: 98 nM

## COc1cccc(OC)c1-n1c(NS(=O)(=O)[C@@H](C)[C@H](O)c2nc(C)c(C)s2)nnc1-c1cncc(C)c1 (single isomer, unassigned) [Example 296.0]
  EC50: 4.7 nM

## COc1cnc([C@@H](O)[C@H](C)S(=O)(=O)Nc2nnc(-c3cncc(C)c3)n2-c2c(OC)cccc2OC)cn1 (single isomer, unassigned) [Example 305.0]
  EC50: 0.39 nM

## COc1cnc([C@@H](O)[C@H](C)S(=O)(=O)Nc2nnc(-c3cncc(C)c3)n2-c2c(OC)cccc2OC)cn1 (single isomer, unassigned) [Example 306.0]
  EC50: 20 nM

## COc1cnc([C@@H](O)[C@H](C)S(=O)(=O)Nc2nnc(-c3cncc(C)c3)n2-c2c(OC)cccc2OC)cn1 (single isomer, unassigned) [Example 308.0]
  EC50: 76 nM

## COc1cnc([C@@H](O)[C@H](C)S(=O)(=O)Nc2nnc(-c3cncc(C)c3)n2-c2c(OC)cccc2OC)cn1 (single isomer, unassigned) [Example 309.0]
  EC50: 9.5 nM

## COc1cnc([C@@H](OC)[C@H](C)S(=O)(=O)Nc2nnc(-c3cncc(C)c3)n2-c2c(OC)cccc2OC)cn1 (single isomer, unassigned) [Example 311.0]
  EC50: 0.26 nM

## COc1cnc([C@@H](OC)[C@H](C)S(=O)(=O)Nc2nnc(-c3cncc(C)c3)n2-c2c(OC)cccc2OC)cn1 (single isomer, unassigned) [Example 312.0]
  EC50: 27 nM

## COc1cccc(-c2nnc(NS(=O)(=O)C[C@H](O)c3ccc(F)cn3)n2-c2c(OC)cccc2OC)n1 (single isomer, unassigned) [Example 316.0, (2R)—N-(4-(2,6-dimethoxyphenyl)-5-(6-methoxy-2-pyridinyl)-4H-1,2,4-triazol-3-yl)-2-(5-fluoro-2-pyridinyl)-2-hydroxyethanesulfonamide or (2S)—N-(4-(2,6-dimethoxyphenyl)-5-(6-methoxy-2-pyridinyl)-4H-1,2,4-triazol-3-yl)-2-(5-fluoro-2-pyridinyl)-2-hydroxyethanesulfonamide]
  EC50: 0.5 nM

## COc1cccc(-c2nnc(NS(=O)(=O)C[C@H](O)c3ccc(F)cn3)n2-c2c(OC)cccc2OC)n1 (single isomer, unassigned) [Example 317.0, (2R)—N-(4-(2,6-dimethoxyphenyl)-5-(6-methoxy-2-pyridinyl)-4H-1,2,4-triazol-3-yl)-2-(5-fluoro-2-pyridinyl)-2-hydroxyethanesulfonamide or (2S)—N-(4-(2,6-dimethoxyphenyl)-5-(6-methoxy-2-pyridinyl)-4H-1,2,4-triazol-3-yl)-2-(5-fluoro-2-pyridinyl)-2-hydroxyethanesulfonamide]
  EC50: 0.53 nM

## COc1cccc(-c2nnc(NS(=O)(=O)C[C@H](OC)c3ccc(F)cn3)n2-c2c(OC)cccc2OC)n1 (single isomer, unassigned) [Example 329.0, (2R)—N-(4-(2,6-dimethoxyphenyl)-5-(6-methoxy-2-pyridinyl)-4H-1,2,4-triazol-3-yl)-2-(5-fluoro-2-pyridinyl)-2-methoxyethanesulfonamide or (2S)—N-(4-(2,6-dimethoxyphenyl)-5-(6-methoxy-2-pyridinyl)-4H-1,2,4-triazol-3-yl)-2-(5-fluoro-2-pyridinyl)-2-methoxyethanesulfonamide]
  EC50: 0.23 nM

## COc1cccc(-c2nnc(NS(=O)(=O)C[C@H](OC)c3ccc(F)cn3)n2-c2c(OC)cccc2OC)n1 (single isomer, unassigned) [Example 330.0, (2R)—N-(4-(2,6-dimethoxyphenyl)-5-(6-methoxy-2-pyridinyl)-4H-1,2,4-triazol-3-yl)-2-(5-fluoro-2-pyridinyl)-2-methoxyethanesulfonamide or (2S)—N-(4-(2,6-dimethoxyphenyl)-5-(6-methoxy-2-pyridinyl)-4H-1,2,4-triazol-3-yl)-2-(5-fluoro-2-pyridinyl)-2-methoxyethanesulfonamide]
  EC50: 0.3 nM

## COc1cccc(-c2nnc(NS(=O)(=O)C[C@H](O)c3ccc(C#N)cn3)n2-c2c(OC)cccc2OC)n1 (single isomer, unassigned) [Example 332.0, (R)-2-(5-cyanopyridin-2-yl)-N-(4-(2,6-dimethoxyphenyl)-5-(6-methoxypyridin-2-yl)-4H-1,2,4-triazol-3-yl)-2-hydroxyethanesulfonamide or (S)-2-(5-cyanopyridin-2-yl)-N-(4-(2,6-dimethoxyphenyl)-5-(6-methoxypyridin-2-yl)-4H-1,2,4-triazol-3-yl)-2-hydroxyethanesulfonamide]
  EC50: 0.56 nM

## COc1cccc(OC)c1-n1c(NS(=O)(=O)[C@@H](C)[C@@H](O)c2ccc(C#N)cc2F)nnc1-c1cncc(C)c1 (single isomer, unassigned) [Example 343.0]
  EC50: 64 nM

## COc1cccc(OC)c1-n1c(NS(=O)(=O)[C@@H](C)[C@@H](O)c2ccc(C#N)cc2F)nnc1-c1cncc(C)c1 (single isomer, unassigned) [Example 344.0]
  EC50: 0.6 nM

## COc1cccc(OC)c1-n1c(NS(=O)(=O)[C@@H](C)[C@H](OC)c2ccc(F)cn2)nnc1-c1cncc(C)c1 (single isomer, unassigned) [Example 351.0]
  EC50: 0.87 nM

## COc1cccc(OC)c1-n1c(NS(=O)(=O)[C@@H](C)[C@H](OC)c2ccc(F)cn2)nnc1-c1cncc(C)c1 (single isomer, unassigned) [Example 352.0]
  EC50: 0.32 nM

## COc1cccc(OC)c1-n1c(NS(=O)(=O)[C@@H](C)[C@H](OC)c2ccc(F)cn2)nnc1-c1cncc(C)c1 (single isomer, unassigned) [Example 353.0]
  EC50: 100 nM
